Experimental data: US20220370322A1, “UV BLOCKING COMPOSITION COMPRISING RED ALGAE-DERIVED FLORIDOSIDE AND AMINE GROUP-CONTAINING COMPOUND” (ATHENA CO., LTD., priority 2019, published 2022)
Several values for one entry are separate records, joined by “and”; a condition that tells them apart may be missing. Identical values can stand only once.

Key:
Raw 264.7 cells = test: Cytotoxicity test (Cell Counting Kit-8); assay type: cell-based; settings: for Viability (%): 24 hours, CCK-8; for Absorbance AVERAGE: absorbance at 450 nm, mean of three; for Absorbance: single replicates, measured at 450 nm
Method: A cytotoxicity test was performed on the sample, which had been identified to be floridoside, by using the Cell Counting Kit-8 kit (DOJINDO, CK04-05).
Raw 264.7 cells were cultured at 1×10^4 cells/well in a DMEM medium containing 10% FBS in a 96-well plate at 37° C. in 5% CO2 incubator for 24 hours, and then treated with a drug. After the cells were cultured at 37° C. in the 5% CO2 incubator for 24 hours, CCK-8 solution was added, followed by incubation at 37° C. for 2 hours, and then the absorbance was measured at 450 nm.

skin = test: Primary patch test for human body application (skin irritation, ICDRG criteria); assay type: in vivo; design: key to Mean score of the skin reaction: mean of ICDRG-graded reactions via skin reaction formula; settings: 31 subjects
Method: A primary patch test for human body application was performed on the sample.
Subjects of the test were determined for skin irritation by a dermatologist a total of 4 times (the date of a patch, the date of removal of the patch, and 24 hours and 120 hours after removal of the patch) during the test period.
The skin patch test was performed using the Van der Bend chamber (Van der Bend, Brielle, the Netherlands). For each of 31 subjects, the sample was applied between the shoulder blade and the waist line on the basis of the spin on the back by using the Van der Bend chamber.
A site of the test was washed with distilled water and dried, and then the sample was dissolved in 10% distilled water. Thereafter, 35 μl was dropped in the Van der Bend chamber, which was then put and fixed on the site of the test. The sample was patched on the skin for 48 hours, and after the removal of the patch, the site of the test was marked with a marking pen, and the site of the test was observed after 30 minutes, 24 hours, and 120 hours.
With respect to the skin reaction, the degrees of irritation were classified according to the evaluation criteria of the International Contact Dermatitis Research Group (ICDRG) as shown in Table 2 below.
The mean score of the skin reaction was calculated by the skin reaction calculation formula, and then the presence or absence of irritation was determined according to the decision table of the skin patch test.

OCC(CO)O[C@H]1O[C@H](CO)[C@H](O)[C@H](O)[C@H]1O [Floridoside, 2-O-α-D-galactopyranosylglycerol]
Viability (%) (Raw 264.7 cells; 1 ppm, Raw 264.7 cells): 83%
Absorbance AVERAGE (Raw 264.7 cells; 1 ppm): 2.594
Absorbance (Raw 264.7 cells; 1 ppm): 2.73 and 2.59 and 2.47
Viability (%) (Raw 264.7 cells; 10 ppm, Raw 264.7 cells): 88%
Absorbance AVERAGE (Raw 264.7 cells; 10 ppm): 2.746
Absorbance (Raw 264.7 cells; 10 ppm): 2.69 and 2.73 and 2.81
Viability (%) (Raw 264.7 cells; 100 ppm, Raw 264.7 cells): 88%
Absorbance AVERAGE (Raw 264.7 cells; 100 ppm): 2.759
Absorbance (Raw 264.7 cells; 100 ppm): 2.68 and 2.79 and 2.81
Viability (%) (Raw 264.7 cells; 500 ppm, Raw 264.7 cells): 89%
Absorbance AVERAGE (Raw 264.7 cells; 500 ppm): 2.790
Absorbance (Raw 264.7 cells; 500 ppm): 2.72 and 2.8 and 2.85
Viability (%) (Raw 264.7 cells; 1000 ppm, Raw 264.7 cells): 89%
Absorbance AVERAGE (Raw 264.7 cells; 1000 ppm): 2.781
Absorbance (Raw 264.7 cells; 1000 ppm): 2.75 and 2.77 and 2.82
Cell protective effect (Raw 264.7 cells; Raw 264.7 cells, 1-1000 ppm, conclusion in words): excellent cell protective effect
Determination (skin patch test) (skin; decision table of the skin patch test): No irritation
Mean score of the skin reaction (skin; skin reaction calculation formula): 0.00
Degree of reaction + (first line), number of subjects (skin; After 30 minutes): 0
Degree of reaction + (second line), number of subjects (skin; After 30 minutes): 0
Degree of reaction +++, number of subjects (skin; After 30 minutes): 0
Degree of reaction ++, number of subjects (skin; After 30 minutes): 0
Degree of reaction + (first line), number of subjects (skin; After 24 hours): 0
Degree of reaction + (second line), number of subjects (skin; After 24 hours): 0
Degree of reaction +++, number of subjects (skin; After 24 hours): 0
Degree of reaction ++, number of subjects (skin; After 24 hours): 0
Degree of reaction + (first line), number of subjects (skin; After 120 hours): 0
Degree of reaction + (second line), number of subjects (skin; After 120 hours): 0
Degree of reaction +++, number of subjects (skin; After 120 hours): 0
Degree of reaction ++, number of subjects (skin; After 120 hours): 0
